In patent US5795876A, “Method of inhibiting vascular cell adhesion molecule-1 and treating chronic inflammatory diseases with 2, 6-di-alkyl-4-silyl-phenols” (Hoechst Marion Rousssel, Inc., priority 1997, dated 1998):
pIC50: −log10 of the molar value. Read-outs that look alike come from different tables or passages of the source.

Key:
[1] = test system: VCAM-1; assay: Cell surface ELISA for VCAM-1 in human umbilical vein endothelial cells (HUVEC), cytokine-induced (tumor necrosis factor-alpha); format: cell-based; settings: for inhibition at 50 µM: read-out: VCAM-1 (% inh. 50 μM); for pIC50: eight serial dilutions, basal expression subtracted
Procedure: (§1) Cell Surface ELISA for VCAM-1/ICAM-1
(§2) Proliferating human umbilical vein endothelial cells (HUVEC) or human aortic smooth muscle cells (HASMC) from Clonetics (San Diego, Calif.) were plated onto 96-well plates in 100 μL medium per well at 20,000 cells per cm^2. The cultures were maintained in growth medium (EGM or SMGM2, Clonetics, San Diego, Calif.) for two days prior to addition of cytokines or drugs. Cytokines plus or minus compounds were added for 20 to 24 hours prior to analysis for adhesion molecule levels. Tumor necrosis factor (Genzyme, Cambridge, Mass.) was added to cultures at 500-1000 units/mL. Interleukin-4 (GIBCO-BRL, Gaithersburg, Md.) was added to cultures at 100-200 pg/mL. (Additions were made by transferring 100 μL of cytokines plus compounds serially diluted on a separate 96-well plate into the plates containing cells. The medium on the cultures was not exchanged prior to addition of effectors). The culture medium was removed, and the monolayers were washed twice with Hanks buffered saline solution (HBSS) at room temperature. The primary antibody (anti-human VCAM-1 from Upstate Biotechnology, Inc., Lake Placid, N.Y. or anti-human ICAM-1 from Immunotech, Inc., Westbrook, Me.) was added to each well (1 μg/mL in HBSS plus 5% newborn calf serum, GIBCO-BRL, Gaithersburg, Md.) and incubated at 37° C. for 1 hr. The wells were washed twice with HBSS, then 100 μL of a 1/1000 dilution of goat anti-mouse IgG conjugated to horse radish peroxidase (BioRad, Hercules, Calif.) in HBSS plus 5% newborn calf serum was added to each well and incubated for 1 hr at 37° C. The wells were washed three times with HBSS, then 100 μL of TMB substrate (BioRad, Hercules, Calif.) was added to each well. The reaction was stopped after blue color developed by addition of 50 μL of 1N H2 SO4. Absorbance is measured at 450 nm with a plate reader. IC50 values were determined from curves of absorbance values obtained from serial dilutions of compounds (dissolved in dimethyl sulfoxide).
(§3) The IC50 value is defined as the drug concentration that inhibits the cytokine-induced adhesion molecule expression by 50%. Maximal values for adhesion molecule expression in cytokine-induced cultures was subtracted from the basal level of adhesion molecule expression (minus cytokines) in the cultures to determine the level of induction. […] Each drug concentration was tested in quadruplicate wells. Single point tests of compounds at 50 μM were assayed as described for IC50 determinations, except that the data represent the level of inhibition without correction for basal expression. (Basal adhesion molecule expression was 10-20% of the total induced expression).
(§4) In these experiments, the cells were coincubated with tumor necrosis factor-alpha along with the indicated compounds about 20 to 24 hr before assaying cell surface adhesion molecule expression.
(§5) Table 3 illustrates the activity of selected compounds when eight serial dilutions of drug were tested against cytokine induction of VCAM-1 expression in both vascular endothelial and smooth muscle cells. Subtraction of basal VCAM-1 expression was also used in the calculation of IC50 values. Each compound was also tested in a similar manner for ICAM-1 inhibition. No inhibition of ICAM-1 was detected (up to 100 μM) in vascular smooth muscle cells.

[2] = test system: ICAM-1; assay: Cell surface ELISA for ICAM-1 in human umbilical vein endothelial cells (HUVEC), cytokine-induced (tumor necrosis factor-alpha); format: cell-based; settings: for inhibition at 50 µM: Homo sapiens, HUVEC, read-out: ICAM-1 (% inh. 50 μM)
Procedure: as §1, §2, §3, §4, §5

[3] = test system: VCAM-1; assay: Cell surface ELISA for VCAM-1 in human aortic smooth muscle cells (HASMC), cytokine-induced (interleukin-4); format: cell-based; settings: for inhibition at 50 µM: HASMC; for pIC50: HSMC, eight serial dilutions, basal expression subtracted
Procedure: as §1, §2, §3
Table 1 summarizes the ability of various compounds of this invention to inhibit VCAM-1 using human aortic smooth muscle cells (HASMC). In these experiments, the cells were coincubated with interleukin-4 and the compounds listed about 20 hr before assaying cell surface VCAM-1 levels. Each column represents a separate experiment.
as §5

[4] = test system: human umbilical vein endothelial cells (HUVEC); assay: Loss of HUVEC adherence to the tissue culture surface (microscope); format: cell-based; settings: vascular endothelial cells; 50 and 100 μM; observed with a microscope
[5] = test system: ICAM-1; settings: vascular endothelial cells; cited from earlier work
[6] = test system: VCAM-1; settings: vascular endothelial cells; cited from earlier work
[7] = test system: VCAM-1; assay: In vivo inhibition of LPS-induced VCAM-1 upregulation in rabbit aorta (immunohistochemistry); parameters: species or system New Zealand white rabbits; settings: 0.4% in diet for three weeks; LPS 40 μg/animal i.v.; aorta 4 hr after LPS; when adequately accumulated
Text: FIG. 1 illustrates the effect of 2,6-di-t-butyl-4-[(dimethylphenylsilyl)methylthio]phenol (MDL 29,353) on LPS induced VCAM-1 expression in rabbit aorta in vivo. Data are expressed as the percent of the aortic surface endothelium expressing VCAM-1 as measured by immunostaining with an anti-rabbit VCAM-1 antibody.
In Vivo Inhibition of VCAM-1 Upregulation by MDL 29,353 in Rabbit Aorta
New Zealand white rabbits were fed a diet of chow plus or minus 0.4% MDL 29,353 for three weeks prior to challenge with lipopolysaccharide (LPS, 40 μg/animal, i.v. ear vein). The aorta was removed from each animal 4 hr after LPS injection and rinsed briefly in phosphate buffered saline. VCAM-1 was immunohistochemistry was performed by incubating the tissues with RB1/9 antibody (mouse anti-rabbit VCAM-1) at 4° C. overnight. The bound RB1/9 was detected using a biotinylated goat anti-mouse secondary antibody (60 min, RT). VCAM-1 staining was accomplished by addition of streptavidin-alkaline phosphatase conjugate (30 min, RT) followed by an incubation with BT Red (Biotec, 10, RT). Images of the stained tissues were captured using an image analysis system for determination of the percentages of the aortic endothelium showing immunoreactivity with anti-VCAM antibody.

[8] = 20 h, read-out: HSMC-1 (% inh. 50 μM) VCAM-1
[9] = 20 h, read-out: HSMC-2 (% inh. 50 μM) VCAM-1
[10] = 20 h, read-out: HSMC-3 (% inh. 50 μM) VCAM-1
[11] = 50 μM, TNF-alpha, 20 to 24 hr, average of three runs
[12] = 50 μM, TNF-alpha, 20 to 24 hr, average of two runs
[13] = HSMC-1 experiment, 50 μM, interleukin-4, about 20 hr, no correction for basal expression, read-out: HSMC-1 (% inh. 50 μM) VCAM-1
[14] = HSMC-2 experiment, 50 μM, interleukin-4, about 20 hr, no correction for basal expression, read-out: HSMC-2 (% inh. 50 μM) VCAM-1
[15] = HSMC-3 experiment, 50 μM, interleukin-4, about 20 hr, no correction for basal expression, read-out: HSMC-3 (% inh. 50 μM) VCAM-1
[16] = average of HSMC-1, HSMC-2, HSMC-3, 50 μM, read-out: VCAM-1 (Avg.) % inh.

Row | SMILES | inhibition at 50 µM [1] | inhibition at 50 µM [2] | inhibition at 50 µM [3, 8] | inhibition at 50 µM [3, 9] | inhibition at 50 µM [3, 10] | inhibition at 50 µM ([3]; read-out: VCAM-1 (Avg.) % inh.) | inhibition at 50 µM [1, 11] | pIC50 [1] | inhibition at 50 µM [3, 13] | inhibition at 50 µM [3, 14] | inhibition at 50 µM [3, 15] | inhibition at 50 µM [3, 16] | pIC50 [3] | other results
1 | CC(C)(C)c1cc(OC[Si](C)(C)c2ccc(Cl)cc2)cc(C(C)(C)C)c1O [MDL 104,280, 2,6-Di-t-butyl-4-[(4-chlorophenyldimethylsilyl)methyloxy]phenol] | 27.3% | 22% | 54.7% | 63% | 44% | 53.9% | – | – | – | – | – | – | – | –
2 | CC(C)(C)c1cc(OC[Si](C)(C)c2ccccc2)cc(C(C)(C)C)c1O [MDL 103,902, 2,6-Di-t-butyl-4-[(dimethylphenylsilyl)methyloxy]phenol] | – | – | – | – | – | – | 25.3% | 4.96 | 49% | 60% | 43% | 50.7% | 5.30 | Inhibition of ICAM-1 expression in vascular endothelial cells ([2]; 50 and 100 μM, could be accounted for by loss of cell adherence): significant inhibition of ICAM-1 expression; inhibition at 50 µM [2, 12]: 39%; Cell adherence to the tissue culture surface [4]: loss of cell adherence
3 | COc1ccc([Si](C)(C)COc2cc(C(C)(C)C)c(O)c(C(C)(C)C)c2)cc1 [MDL 105,074, 2,6-Di-t-butyl-4-[(dimethyl-4-methoxyphenylsilyl)methyloxy]phenol] | – | – | – | – | – | – | 20% | 4.92 | 28.3% | 52% | 47% | 42.4% | 4.40 | –
4 | CC(=O)N[C@@H](CS)C(=O)O [N-acetylcysteine] | – | – | – | – | – | – | – | – | – | – | – | – | – | Inhibition of cytokine-induced expression of ICAM-1 [5]: not ICAM-1; Inhibition of cytokine-induced expression of VCAM-1 [6]: inhibit cytokine-induced expression of VCAM-1
5 | CC(C)(C)c1cc(SC[Si](C)(C)C)cc(C(C)(C)C)c1O [MDL 28,235, 2,6-Di-t-butyl-4-[(trimethylsilyl)methylthio]phenol] | 4.3% | – | 7.8% | 18% | 42% | 22.6% | – | – | – | – | – | – | – | –
6 | Cc1cc(SC[Si](C)(C)c2ccccc2)cc(C(C)(C)C)c1O [MDL 104,518, 2-t-butyl-6-methyl-4-[(dimethylphenylsilyl)methylthio]phenol] | – | 78% | 4.4% | 47% | 26% | 25.8% | – | – | – | – | – | – | – | –
7 | S=C(S)N1CCCC1 [pyrollidine dithiocarbamate] | – | – | – | – | – | – | – | – | – | – | – | – | – | Inhibition of cytokine-induced expression of ICAM-1 [5]: not ICAM-1; Inhibition of cytokine-induced expression of VCAM-1 [6]: inhibit cytokine-induced expression of VCAM-1
8 | CC(C)(C)c1cc(SC[Si](C)(C)c2ccccc2)cc(C(C)(C)C)c1O [MDL 29,353, 2,6-Di-t-butyl-4-[(dimethylphenylsilyl)methylthio]phenol] | – | – | – | – | – | – | 8.7% | 4.72 | 58% | 60% | 46% | 54.7% | 5.00 | Inhibition of LPS induced VCAM-1 expression in rabbit aortic endothelium (FIG. 1) [7]: can inhibit the LPS induced level of VCAM-1 expression in rabbit aortic endothelium; inhibition at 50 µM [2, 12]: 6%
9 | Cc1cc(OC[Si](C)(C)c2ccccc2)cc(C)c1O [MDL 103,719, 2,6-Dimethyl-4-[(dimethylphenylsilyl)methyloxy]phenol] | 17% | 77% | – | 49% | 42% | 45.5% | – | – | – | – | – | – | – | –
